Experimental data reported in US20250074869A1, “AMINO-COMBRETASTATIN DERIVATIVE AND USE THEREOF” (priority 2020, published 2025).
Structures can show the parent of a compound that is named as a salt.

Key:
[1] = Acute toxicity study in animals (oral LD50); details: mouse, in vivo, male ICR mice, intragastric administration, observed 14 days, hydrochloride salts
Description: Male ICR mice weighed 23±2 g, clean grade, were selected. The route of administration was intragastric (ig) administration, which is consistent with the intended oral route for clinical use.
Mice were randomly divided into 8 groups by weight: the blank control group, Example 1 group, Example 5 group, Example 11 group, Example 12 group, Example 13 group, Example 14 group and control group. Among these, the control group received amino-combretastatin serinamide hydrochloride as the control (hereinafter referred to as control).
Preparation of the compounds used in the example groups: The compounds obtained in Example 1, Example 3. Example 4. Example 5. Example 6. Example 7. Example 8. Example 9. Example 10. Example 11. Example 12, Example 13 and Example 14 were prepared into hydrochloride salts according to the method disclosed in Example 2.
Pre-treatment: […] were deprived of food but not water for 12 h before the study. and randomized into groups of 10 by body weight. The treatment groups were intragastrically administered once at 0.25 mL/10 g body weight, and the water control group received an equivalent amount of distilled water through intragastric administration. The LD100 value (the amount for 100% death), LD0 (the amount for 0 death) and the corresponding range r value between the dose groups were calculated, and LD50 was determined.
Study procedures: 160 mice were randomized into 8 groups of 20 mice by body weight. After deprivation of food but not water for 12 h before the study, each group was intragastrically given the compound once at 0.3 mL/10 g body weight. Since no death was observed after 12 h, the second dose was given. The control group received equivalent volumes of water. The daily dose of each group was calculated; the control group received equal volumes of water and was subjected to an acute toxicity study for observation and the body weight of the mice was recorded daily for 14 days.

[2] = system: non-small cell lung cancer cells A549; test: Efficacy study in nude mouse with xenograft tumor, A549; type: in vivo, human; details: BALB/cA-nude mice, subcutaneous xenograft, 50 mg/kg intragastric once daily for 21 days, dosed as hydrochloride; for inhibition in vivo at 50 mg/kg: Mus musculus, A549, sc, 504 h, read-out: % tumor inhibition (D21) A549
Protocol: (§1) BALB/cA-nude mice aged 6 to 7 weeks were purchased from Shanghai Slac Laboratory Animal Co., Ltd. The nude mice were subcutaneously grafted with human liver cancer cells Bel-7402, colon cancer cells HT-29, gastric cancer cells SGC-7901 or non-small cell lung cancer cells A549. After the tumor grew to 100 to 250 mm^3, the animals were randomized (d0). The tumor volumes and body weights were measured twice or thrice a week, and the data were recorded. Tumor volume (V) was calculated as follows:
(§2) [formula] • wherein a and b represent length and width, respectively; T and C are the tumor volumes at the end of study; T0 and C0 are the tumor volumes at the start of study.
(§3) All samples were diluted to the desired concentration with 50% PEG400 in distilled water. The regimen was once daily for 21 days at 50 mg/kg mouse body weight through intragastric administration, and 50 mg/kg for the control. The compounds obtained in Examples 1, 3, 4, 5, 6, 7, 8, 9, 10, 11, 12, 13 and 14 and the control were prepared into corresponding hydrochloride as the dosing compounds according to the method disclosed in Example 2 to investigate their efficacy on human liver cancer cell Bel-7402, colon cancer cell HT-29, gastric cancer cell SGC-7901 or non-small cell lung cancer cell A549 xenograft tumors in nude mice and to compare the compounds with the control (prepared as in Example 16).

[3] = system: human liver cancer cells Bel-7402; test: Efficacy study in nude mouse with xenograft tumor, Bel-7402; type: in vivo; details: BALB/cA-nude mice, subcutaneous xenograft, 50 mg/kg intragastric once daily for 21 days, dosed as hydrochloride; for inhibition in vivo at 50 mg/kg: Mus musculus, Bel-7402, sc, 504 h, read-out: % tumor inhibition (D21) Bel-7402
Protocol: as §1, §2, §3

[4] = system: gastric cancer cells SGC-7901; test: Efficacy study in nude mouse with xenograft tumor, SGC-7901; type: in vivo, human; details: BALB/cA-nude mice, subcutaneous xenograft, 50 mg/kg intragastric once daily for 21 days, dosed as hydrochloride; for inhibition in vivo at 50 mg/kg: Mus musculus, SGC-7901, sc, 504 h, read-out: % tumor inhibition (D21) SGC-7901
Protocol: as §1, §2, §3

colon cancer cells HT-29 = test: Efficacy study in nude mouse with xenograft tumor, HT-29; type: in vivo, human; details: BALB/cA-nude mice, subcutaneous xenograft, 50 mg/kg intragastric once daily for 21 days, dosed as hydrochloride; for inhibition in vivo at 50 mg/kg: Mus musculus, HT-29, sc, 504 h, read-out: % tumor inhibition (D21) HT-29
Protocol: as §1, §2, §3

Row | Compound | LD50 at 14 days [1] [mg/kg] | inhibition in vivo at 50 mg/kg [2] [%] | inhibition in vivo at 50 mg/kg [3] [%] | inhibition in vivo at 50 mg/kg [4] [%] | inhibition in vivo at 50 mg/kg (colon cancer cells HT-29) [%] | other results
1 | CCCN(CCC)CCC(=O)Nc1cc(/C=C\c2cc(OC)c(OC)c(OC)c2)ccc1OC(F)F [Hydrochloride of Example 8] | 1100 |  |  |  |  | 
2 | CCOc1ccc(/C=C\c2cc(OC)c(OC)c(OC)c2)cc1NC(=O)CCNCC(F)F [Hydrochloride of Example 13] |  |  |  |  |  | LD50 [1]: 1000 mg/kg
3 | CCOc1ccc(/C=C\c2cc(OC)c(OC)c(OC)c2)cc1NC(=O)CCN(CC)CC [Example 4, (Z)-1-(3,4,5-trimethoxyphenyl)-2-((3-(bis(2-ethyl)amino)propionamide)-4-ethoxyphenyl)ethylene] |  | 67 | 90 | 76 | 91 | 
4 | CCCN(CCC)CCC(=O)Nc1cc(/C=C\c2cc(OC)c(OC)c(OC)c2)ccc1OCC [Hydrochloride of Example 1, (Z)-1-(3,4,5-trimethoxyphenyl)-2-((3-(bis(2-n-propyl)amino)propionamide)-4-ethoxyphenyl)ethylene hydrochloride] | 1200 |  |  |  |  | 
5 | CCCN(CCC)CCC(=O)Nc1cc(/C=C\c2cc(OC)c(OC)c(OC)c2)ccc1OC(F)F [Example 8, (Z)-1-(3,4,5-trimethoxyphenyl)-2-((3-(bis(2-n-propyl)amino)propionamide)-4-difluoromethoxyphenyl)ethylene] |  | 67 | 90 | 71 | 88 | 
6 | CCOc1ccc(/C=C\c2cc(OC)c(OC)c(OC)c2)cc1NC(=O)CCNCC(F)F [Example 13, (Z)-1-(3,4,5-trimethoxyphenyl)-2-((3-(2,2-difluoroethylamino)propionamide)-4-ethoxyphenyl)ethylene] |  | 63 | 82 | 72 | 77 | 
7 | CCCCN(CCCC)CCC(=O)Nc1cc(/C=C\c2cc(OC)c(OC)c(OC)c2)ccc1OCC(F)(F)F [Example 9, (Z)-1-(3,4,5-trimethoxyphenyl)-2-((3-(bis(2-n-butyl)amino)propionamide)-4-trifluoroethoxyphenyl)ethylene] |  | 61 | 79 | 80 | 85 | 
8 | CCOc1ccc(/C=C\c2cc(OC)c(OC)c(OC)c2)cc1NC(=O)CCNCC(OC)OC [Hydrochloride of Example 14] | 1000 |  |  |  |  | 
9 | CCCCN(CCCC)CCC(=O)Nc1cc(/C=C\c2cc(OC)c(OC)c(OC)c2)ccc1OCC [Example 5, (Z)-1-(3,4,5-trimethoxyphenyl)-2-((3-(bis(2-n-butyl)amino)propionamide)-4-ethoxyphenyl)ethylene] |  | 63 | 88 | 80 | 82 | 
10 | CCCN(CCC)CCC(=O)Nc1cc(/C=C\c2cc(OC)c(OC)c(OC)c2)ccc1OCC(F)(F)F [Example 7, (Z)-1-(3,4,5-trimethoxyphenyl)-2-((3-(bis(2-n-propyl)amino)propionamide)-4-trifluoroethoxyphenyl) ethylene] |  | 66 | 81 | 65 | 79 | 
11 | CCCN(CCC)CCC(=O)Nc1cc(/C=C\c2cc(OC)c(OC)c(OC)c2)ccc1OCC [Example 1] |  | 69 | 92 | 82 | 93 | 
12 | CCOc1ccc(/C=C\c2cc(OC)c(OC)c(OC)c2)cc1NC(=O)CCNCC(OC)OC [Example 14, (Z)-1-(3,4,5-trimethoxyphenyl)-2-((3-(2,2-dimethoxyethylamino)propionamide)-4-ethoxyphenyl)ethylene] |  | 66 | 82 | 80 | 71 | 
13 | CCOc1ccc(/C=C\c2cc(OC)c(OC)c(OC)c2)cc1NC(=O)CCN(CCO)CCO [Example 11, (Z)-1-(3,4,5-trimethoxyphenyl)-2-((3-(bis(2-hydroxyethyl)amino)propionamide)-4-ethoxyphenyl)ethylene] |  | 63 | 88 | 65 | 89 | 
14 | CCCCN(CCCC)CCC(=O)Nc1cc(/C=C\c2cc(OC)c(OC)c(OC)c2)ccc1OC [Hydrochloride of Example 6] |  |  |  |  |  | LD50 [1]: 900 mg/kg
15 | CCOc1ccc(/C=C\c2cc(OC)c(OC)c(OC)c2)cc1NC(=O)CCN(CCO)CCO [Hydrochloride of Example 11] | 1100 |  |  |  |  | 
16 | CCCN(CCC)CCC(=O)Nc1cc(/C=C\c2cc(OC)c(OC)c(OC)c2)ccc1OCC(F)(F)F [Hydrochloride of Example 7] | 1200 |  |  |  |  | 
17 | COc1ccc(/C=C\c2cc(OC)c(OC)c(OC)c2)cc1NC(=O)CCN(CCO)CCO [Example 12, (Z)-1-(3,4,5-trimethoxyphenyl)-2-((3-(bis(2-hydroxyethyl)amino)propionamide)-4-methoxyphenyl)ethylene] |  | 58 | 79 | 77 | 79 | 
18 | COc1ccc(/C=C\c2cc(OC)c(OC)c(OC)c2)cc1NC(=O)CCN(CCO)CCO [Hydrochloride of Example 12] |  |  |  |  |  | LD50 [1]: 1100 mg/kg
19 | CCCCN(CCCC)CCC(=O)Nc1cc(/C=C\c2cc(OC)c(OC)c(OC)c2)ccc1OCC [Hydrochloride of Example 5] | 1200 |  |  |  |  | 
20 | CCC(C)N(CCC(=O)Nc1cc(/C=C\c2cc(OC)c(OC)c(OC)c2)ccc1OC(F)F)C(C)CC (stereo not shown) [Example 10, (Z)-1-(3,4,5-trimethoxyphenyl)-2-((3-(bis(2-n-butyl)amino)propionamide)-4-difluoromethoxyphenyl)ethylene] |  |  |  |  |  | % tumor inhibition (D21) A549 [2]: 60%; % tumor inhibition (D21) Bel-7402 [3]: 86%; % tumor inhibition (D21) SGC-7901 [4]: 73%; % tumor inhibition (D21) HT-29 (colon cancer cells HT-29): 81%
21 | CCCCN(CCCC)CCC(=O)Nc1cc(/C=C\c2cc(OC)c(OC)c(OC)c2)ccc1OCC(F)(F)F [Hydrochloride of Example 9] | 1000 |  |  |  |  | 
22 | CCCN(CCC)CCC(=O)Nc1cc(/C=C\c2cc(OC)c(OC)c(OC)c2)ccc1OC [Example 3, (Z)-1-(3,4,5-trimethoxyphenyl)-2-((3-(bis(2-n-propyl)amino)propionamide)-4-methoxyphenyl)ethylene] |  | 65 | 89 | 78 | 88 | 
23 | CCCCN(CCCC)CCC(=O)Nc1cc(/C=C\c2cc(OC)c(OC)c(OC)c2)ccc1OC [Example 6, (Z)-1-(3,4,5-trimethoxyphenyl)-2-((3-(bis(2-n-butyl)amino)propionamide)-4-methoxyphenyl)ethylene] |  | 62 | 89 | 81 | 90 | 
24 | CCOc1ccc(/C=C\c2cc(OC)c(OC)c(OC)c2)cc1NC(=O)CCN(CC)CC [Hydrochloride of Example 4] | 1100 |  |  |  |  | 
25 | CCCN(CCC)CCC(=O)Nc1cc(/C=C\c2cc(OC)c(OC)c(OC)c2)ccc1OC [Hydrochloride of Example 3] | 1000 |  |  |  |  | 
